Laboratory results: ChEMBL document CHEMBL1140180, “Antiproliferative triterpenes from Melaleuca ericifolia” (J Nat Prod, 2008)

Experiment: Antiproliferative activity against mouse +SA mammary epithelial cells after 4 days by MTT assay
Assay type: functional, cell-based
Conditions: Epithelial cell, 96 h

First: C=C(C)[C@@H]1CC[C@@]2(OO)CC[C@]3(C)[C@H](CC[C@@H]4[C@@]5(C)CC[C@H](O)C(C)(C)[C@@H]5CC[C@]43C)[C@@H]12
Second: C=C(C)[C@@H]1CC[C@]2(OO)CC[C@]3(C)[C@H](CC[C@@H]4[C@@]5(C)CC[C@H](O)C(C)(C)[C@@H]5CC[C@]43C)[C@@H]12
The IC50 of the first is higher: greater than 20 µM for the first, 15.5 µM for the second.

`C=C(C)[C@@H]1CC[C@]2(C(=O)O)CC[C@]3(C)[C@H](CC[C@@H]4[C@@]5(C)CC[C@H](O)C(C)(C)[C@@H]5CC[C@]43C)[C@@H]12` [BETULINIC ACID] and `CC(=O)[C@@H]1CC[C@]2(C(=O)O)CC[C@]3(C)[C@H](CC[C@@H]4[C@@]5(C)CC[C@H](O)C(C)(C)[C@@H]5CC[C@]43C)[C@@H]12` [PLATANIC ACID] cannot be ordered by IC50: greater than 20 µM for the first, greater than 20 µM for the second.

First: C=C(C)[C@@H]1CC[C@]2(CO)CC[C@]3(C)[C@H](CC[C@@H]4[C@@]5(C)CC[C@H](O)C(C)(C)[C@@H]5CC[C@]43C)[C@@H]12 [BETULIN]
Second: C=C(C)[C@@H]1CC[C@]2(O)CC[C@]3(C)[C@H](CC[C@@H]4[C@@]5(C)CC[C@H](O)C(C)(C)[C@@H]5CC[C@]43C)[C@@H]12
The IC50 of the first is higher: greater than 20 µM for the first, 18.7 µM for the second.

`C[C@H]1[C@H](C)CC[C@]2(C(=O)O)CC[C@]3(C)C(=CC[C@@H]4[C@@]5(C)CC[C@H](O)C(C)(C)[C@@H]5CC[C@]43C)[C@H]12` [URSOLIC ACID] and `C[C@H]1[C@H](C)CC[C@]2(C(=O)O)CC[C@]3(C)C(=CC[C@@H]4[C@@]5(C)C[C@@H](O)[C@H](O)[C@@](C)(CO)[C@@H]5CC[C@]43C)[C@H]12` [ASIATIC ACID] cannot be ordered by IC50: greater than 20 µM for the first, greater than 20 µM for the second.

`C[C@H]1CO[C@]23CC[C@@H]1[C@@H]2[C@H]1CC[C@@H]2[C@@]4(C)CC[C@H](O)C(C)(C)[C@@H]4CC[C@@]2(C)[C@]1(C)CC3` and `C=C(C)[C@@H]1CC[C@]2(C=O)CC[C@]3(C)[C@H](CC[C@@H]4[C@@]5(C)CC[C@H](O)C(C)(C)[C@@H]5CC[C@]43C)[C@@H]12` [BETULINALDEHYDE] are within 1.5-fold of each other in IC50: 18.1 µM for the first, 19.4 µM for the second.
